Q: Which melting point does the source give for Cc1ccc2nc(-c3ccccc3)c(-c3ccccc3)nc2c1 here?
A: 114 to 116 °C

Q: Which melting point does the source give for O=C(CC(=O)Oc1cc(O)cc(O)c1)Oc1cc(O)cc(O)c1 here?
A: 258 to 260 °C

Q: For CC(=O)Nc1nc(NC(C)=O)nc(-c2ccc(S(=O)(=O)c3ccccc3)cc2)n1, which melting point is on record?
A: > 260 °C

Q: Which melting point does the source give for NC(=O)c1ncn(Cc2ccccc2)c1NC(=S)NC(=O)c1ccccc1 here?
A: 181 to 182 °C

Q: For COC(=O)CC(c1ccc(OC)cc1)N1C(=O)c2ccccc2C1=O (stereo unspecified), which melting point is on record?
A: 65 to 66 °C

Q: With CC(=O)N1CCC(C(=NN)c2ccc(F)cc2F)CC1 as the molecule, how does the melting point read?
A: 139 to 142 °C

Q: For CCCc1nc(Cl)c(C(=O)O)n1Cc1ccc(C2(C(=O)OCC)CC=CC2)s1, which melting point is on record?
A: 114 to 115 °C

Q: With CC(=O)Oc1ccc(P(c2ccccc2)c2ccc(OC(C)=O)cc2)cc1 as the molecule, how does the melting point read?
A: 118 to 120 °C

Q: With Cc1[nH]c(-c2cccc(C(F)(F)F)c2)nc1C=O as the molecule, how does the melting point read?
A: 180 °C

Q: Which melting point does the source give for COc1cc(OC)c2c(=O)[nH]c(-c3cc(C)c(OCCN4CCN(C(C)=O)CC4)c(C)c3)nc2c1 here?
A: 213 to 214 °C

Q: With CCC(CC)c1ccc(Cl)c2nc3n(c12)CCN3c1ccc(C(N)=O)cc1Cl as the molecule, how does the melting point read?
A: 225 to 229 °C

Q: Which melting point does the source give for CSCCN1C(=O)c2ccccc2Oc2nc(Cl)ccc21 here?
A: 126 to 128 °C

Q: Which melting point does the source give for N#CSc1ccc(N)c(C#N)c1 here?
A: 120 to 121 °C

Q: Which melting point does the source give for O=C(O)c1c(Sc2ccccc2)c2ccccc2n1-c1ccc2c(c1)OCO2 here?
A: 182 to 183 °C

Q: For O=C(Nc1ccccc1Cl)Oc1ccc2c(c1)CCCN2, which melting point is on record?
A: 201 °C

Q: For CC(=O)Oc1cc(OCCF)ccc1C(=O)O, which melting point is on record?
A: 126 to 127 °C

Q: With CN1CCN(c2cc(Cl)cc3c2c(=O)n(Cc2ccc(Br)cc2)c(=O)n3Cc2ccccc2)CC1 as the molecule, how does the melting point read?
A: 93 to 98 °C

Q: For Cc1ccc(-n2ccc(C=O)c2)cc1, which melting point is on record?
A: 71 to 72 °C

Q: With CC(C(=O)O)c1ccc(-c2ccc(O)cc2)c(F)c1 (stereo unspecified) as the molecule, how does the melting point read?
A: 195 to 197 °C

Q: For CC1CCNC(C)C1(C)CCCO (stereo unspecified), which melting point is on record?
A: 89 to 91 °C

Q: For CON(c1ccc([N+](=O)[O-])cc1[N+](=O)[O-])S(=O)(=O)c1ccccc1Cl, which melting point is on record?
A: 112 to 114 °C

Q: With CSC1C(=O)Nc2ccc(Oc3ccccc3)cc21 (stereo unspecified) as the molecule, how does the melting point read?
A: 124 to 128 °C

Q: With COC(=O)Cn1nnc(N)n1 as the molecule, how does the melting point read?
A: 127 to 128 °C

Q: With COc1cccc(NC(=O)c2ccc(C(=O)N3CCCc4ccccc43)cc2)c1 as the molecule, how does the melting point read?
A: 154 to 155 °C

Q: For Cc1ccc(N2CCCN(C(=O)OC(C)(C)C)CC2)cc1[N+](=O)[O-], which melting point is on record?
A: 103 to 106 °C

Q: For COc1ccc(C(=O)O)c2c1OCCO2, which melting point is on record?
A: 224 to 226 °C

Q: For CCN1CCc2ccc(Nc3ncc(Cl)c(N[C@@H]4CCCC[C@H]4NC(=O)C(F)(F)F)n3)cc2CC1, which melting point is on record?
A: 165 °C

Q: With Cn1cc(C(=O)O)c(=O)c2cc(F)c(N3CCCN(c4ncccn4)CC3)c(C(F)(F)F)c21 as the molecule, how does the melting point read?
A: 243 to 245 °C

Q: For CC1C(=O)c2ccccc2C1NCCc1ccccc1 (stereo unspecified), which melting point is on record?
A: 82 to 83 °C

Q: For CCCCCCCCCC1OC1CO (stereo unspecified), which melting point is on record?
A: 55 to 56 °C

Q: With CC=CC1Nc2ccccc2-c2c([N+](=O)[O-])cnn21 (stereo unspecified) as the molecule, how does the melting point read?
A: 115 to 117 °C

Q: For CCc1nn(C2CCC2)c2cc(C(=O)O)ccc12, which melting point is on record?
A: 148 to 150 °C

Q: For CC(=O)Nc1ccc(NCCNS(C)(=O)=O)cc1, which melting point is on record?
A: 130 °C

Q: For COC(=O)c1cccc2nc(OC)n(Cc3ccc(-c4ccccc4-c4nc(=O)o[nH]4)cc3)c12, which melting point is on record?
A: 215 to 216 °C

Q: Which melting point does the source give for O=[N+]([O-])c1ccc(-c2cnc(Nc3ccc(Oc4ccccc4)cc3)s2)cc1 here?
A: 191 to 196 °C

Q: For CC12CCC(O)CC1=CCC1C2CCC2(C)C1CCC2n1ccnc1 (stereo unspecified), which melting point is on record?
A: 255 to 258 °C

Q: Which melting point does the source give for Cc1cccc(-c2[nH]c(C(C)C)nc2-c2ccc(F)c(-c3ccc4c(c3)CCS4(=O)=O)c2)n1 here?
A: 119 to 123 °C

Q: With Nc1nc(Nc2ccccc2)sc1C(=O)c1cccnc1 as the molecule, how does the melting point read?
A: 227 to 228 °C

Q: With CCOC(=O)C1=C(C)NC(C)=C(C(=O)OCC(F)(F)F)C1c1cccc([N+](=O)[O-])c1 (stereo unspecified) as the molecule, how does the melting point read?
A: 192 °C

Q: With O=C(c1cccc(Cl)c1)N1CCCN(CC2=Nc3cccc4c(=O)[nH]nc(c34)N2)CC1 as the molecule, how does the melting point read?
A: 147 to 149 °C

Q: With O=C1Nc2cccnc2N(C(=O)CCCl)c2ccccc21 as the molecule, how does the melting point read?
A: 216 to 218 °C
